Source: patent US11046716B2, “Beta-lactamase inhibitors” (priority 2015, dated 2021)

What was measured:
SHV-5 = molecular target: T1, SHV-5 (Klebsiella pneumoniae, UniProt P0A3M1); assay: β-lactamase enzyme inhibition assay, SHV-5 (cefotaxime substrate); assay type: biochemical
T1 construct: made in house; host or cells: E. coli BL21(DE3)
How it was run: (§1)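 Native untagged enzymes expressed in E. coli BL21(DE3), purified by cation exchange and gel filtration. Inhibitor preincubated with enzyme 15 min at 37 °C; hydrolysis followed by absorbance: imipenem at 300 nm for KPC-2, cefotaxime at 260 nm for SHV-5. IC50 as concentration halving initial hydrolysis rate versus inhibitor-free wells.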

KPC-2 = molecular target: T2, KPC-2 (Klebsiella pneumoniae, UniProt Q9F663); assay: β-lactamase enzyme inhibition assay, KPC-2 (imipenem substrate); assay type: biochemical; details: Class A; imipenem substrate, 300 nm; read-out: KPC-2
T2 construct: made in house; host or cells: E. coli BL21(DE3)
T2 sequence (Q9F663 25-293, looked up): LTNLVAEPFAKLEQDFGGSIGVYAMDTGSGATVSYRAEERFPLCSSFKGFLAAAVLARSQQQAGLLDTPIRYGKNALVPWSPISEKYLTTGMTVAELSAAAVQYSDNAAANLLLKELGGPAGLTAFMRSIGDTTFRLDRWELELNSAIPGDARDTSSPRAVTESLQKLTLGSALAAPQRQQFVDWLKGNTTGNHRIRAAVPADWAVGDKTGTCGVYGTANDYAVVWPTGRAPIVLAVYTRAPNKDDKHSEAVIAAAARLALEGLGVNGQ
How it was run: as §1

VIM-2 = molecular target: T3, VIM-2 (Escherichia coli, UniProt Q5U7L7); assay: β-lactamase enzyme inhibition assay, VIM-2 (nitrocefin substrate); assay type: biochemical; details: Class B; nitrocefin substrate, 486 nm; read-out: VIM-2
T3 construct: made in house; host or cells: E. coli BL21(DE3)
How it was run: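 Nitrocefin hydrolysis, read at 486 nm over 10 min, served as the measure of VIM-2 activity. The enzyme had been incubated with compound for 15 min at 37 °C before 100 μM substrate was added, and IC50 values were fitted from percent inhibition of the initial rate.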

AmpC = molecular target: T4, AmpC (Enterobacter cloacae, UniProt P05364); assay: β-lactamase enzyme inhibition assay, p99 AmpC (nitrocefin substrate); assay type: biochemical
T4 construct: made in house; host or cells: E. coli BL21(DE3)
T4 sequence (P05364 21-381): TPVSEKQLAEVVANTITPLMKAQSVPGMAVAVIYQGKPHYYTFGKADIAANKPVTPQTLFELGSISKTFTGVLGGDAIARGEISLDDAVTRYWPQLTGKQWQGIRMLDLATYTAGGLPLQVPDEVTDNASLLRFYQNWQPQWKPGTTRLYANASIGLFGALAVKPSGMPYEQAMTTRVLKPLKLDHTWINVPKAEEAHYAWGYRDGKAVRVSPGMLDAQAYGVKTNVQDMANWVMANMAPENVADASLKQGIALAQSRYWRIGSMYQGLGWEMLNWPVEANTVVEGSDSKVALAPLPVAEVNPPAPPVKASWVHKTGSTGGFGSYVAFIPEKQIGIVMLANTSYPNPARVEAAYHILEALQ
How it was run: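 Native untagged enzymes expressed in E. coli BL21(DE3), purified by cation exchange and gel filtration. Inhibitor preincubated with enzyme 15 min at 37 °C; hydrolysis followed by absorbance. IC50 as concentration halving initial hydrolysis rate versus inhibitor-free wells.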

OXA-48 = OXA-48 (UniProt Q6XEC0); assay: β-lactamase enzyme inhibition assay, Class D oxacillinase; assay type: biochemical; details: read-out: OXA-48
[1] = system: E. coli expressing the Class A Extended Spectrum Beta-Lactamase (ESBL) CTX-M-15; assay: Broth microdilution MIC assay with ceftazidime, E. coli CTX-M-15; assay type: cell-based; details: Fixed CAZ (ceftazidime) 4 μg/mL; E. coli ESBL4 CTX-M-15
How it was run: (§2)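 Visual MIC readout of the test compound after 16-20 hours at 37° C, measured in the presence of a constant 4 μg/ml β-lactam. Compound concentrations spanned 16 to 0.125 μg/mL in 2-fold steps in cation-adjusted Mueller Hinton broth.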

[2] = system: E. cloacae expressing the Class C P99; assay: Broth microdilution MIC assay with ceftazidime, E. cloacae P99; assay type: cell-based; details: Fixed CAZ (ceftazidime) 4 μg/mL; E. cl. 144200 p99 AmpC
How it was run: as §2

[3] = system: K. pneumoniae expressing the Class A carbapenemase KPC-2; assay: Broth microdilution MIC assay with meropenem, K. pneumoniae KPC-2; assay type: cell-based; details: Fixed Mero (meropenem) 4 μg/mL; K. p. 156319 KPC-3
How it was run: as §2

[4] = system: P. aeruginosa expressing the Class B carbapenemase VIM-2; assay: Broth microdilution MIC assay with meropenem, P. aeruginosa VIM-2; assay type: cell-based; details: Fixed Mero (meropenem) 4 μg/mL; P. aerug. 2775 VIM-2
How it was run: as §2

[5] = system: K. pneumoniae expressing the class A carbapenemase KPC-2 and the class B carbapenemase VIM-4; assay: Broth microdilution MIC assay with meropenem, K. pneumoniae KPC-2 and VIM-4; assay type: cell-based; details: Fixed Mero (meropenem) 4 μg/mL; K. p. A-1797 KPC-2 VIM-4
How it was run: as §2

[6] = system: K. pneumoniae producing the Class D carbapenemase OXA-48; assay: Broth microdilution MIC assay with meropenem, K. pneumoniae OXA-48; assay type: cell-based; details: Fixed Mero (meropenem) 4 μg/mL; K. p. 11978 OXA-48
How it was run: as §2

T1 sequence (P0A3M1 22-286): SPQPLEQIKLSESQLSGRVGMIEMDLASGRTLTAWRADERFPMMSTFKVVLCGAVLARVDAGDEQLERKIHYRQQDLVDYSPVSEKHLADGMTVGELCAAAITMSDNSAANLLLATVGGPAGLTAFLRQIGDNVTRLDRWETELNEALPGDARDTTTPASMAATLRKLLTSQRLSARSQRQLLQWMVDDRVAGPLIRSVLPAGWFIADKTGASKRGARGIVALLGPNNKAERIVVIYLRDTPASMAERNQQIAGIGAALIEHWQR

Structure (SMILES)	IC50 (SHV-5) [µM]	IC50 (KPC-2) [µM]	IC50 (VIM-2) [µM]	IC50 (AmpC) [µM]	IC50 (OXA-48) [µM]	MIC (μg/mL) of Exemplary Compounds in presence of fixed β-lactams: E. coli ESBL4 CTX-M-15 [1]	MIC (μg/mL) of Exemplary Compounds in presence of fixed β-lactams: E. cl. 144200 p99 AmpC [2]	MIC (μg/mL) of Exemplary Compounds in presence of fixed β-lactams: K. p. 156319 KPC-3 [3]	MIC (μg/mL) of Exemplary Compounds in presence of fixed β-lactams: P. aerug. 2775 VIM-2 [4]	MIC (μg/mL) of Exemplary Compounds in presence of fixed β-lactams: K. p. A-1797 KPC-2 VIM-4 [5]	MIC (μg/mL) of Exemplary Compounds in presence of fixed β-lactams: K. p. 11978 OXA-48 [6]
O=C(Cn1cc(C(=O)N[C@@H]2CCNC2)nn1)N[C@H]1Cc2cccc(C(=O)O)c2OB1O [Example 84, (R)-2-hydroxy-3-(2-(4-(((R)-pyrrolidin-3-yl)carbamoyl)-1H-1,2,3-triazol-1-yl)acetamido)-3,4-dihydro-2H-benzo[e][1,2]oxaborinine-8-carboxylic acid]	0.1 to 1	< 0.1	< 0.1	< 0.1	0.1 to 1	C (C represents an MIC of <1 μg/mL)	C (C represents an MIC of <1 μg/mL)	B (B represents an MIC between 1 and 16 μg/mL inclusive)	C (C represents an MIC of <1 μg/mL)	C (C represents an MIC of <1 μg/mL)	B (B represents an MIC between 1 and 16 μg/mL inclusive)
NCc1nnn(CC(=O)N[C@H]2Cc3cccc(C(=O)O)c3OB2O)c1-c1ccsc1 [Example 108, (R)-3-(2-(4-(aminomethyl)-5-(thiophen-3-yl)-1H-1,2,3-triazol-1-yl)acetamido)-2-hydroxy-3,4-dihydro-2H-benzo[e][1,2]oxaborinine-8-carboxylic acid]	0.1 to 1	< 0.1	< 0.1	< 0.1	< 0.1	C (C represents an MIC of <1 μg/mL)	B (B represents an MIC between 1 and 16 μg/mL inclusive)	B (B represents an MIC between 1 and 16 μg/mL inclusive)	C (C represents an MIC of <1 μg/mL)	C (C represents an MIC of <1 μg/mL)	B (B represents an MIC between 1 and 16 μg/mL inclusive)
NCCn1cnc(CC(=O)N[C@H]2Cc3cccc(C(=O)O)c3OB2O)n1 [Example 118, (R)-3-(2-(1-(2-aminoethyl)-1H-1,2,4-triazol-3-yl)acetamido)-2-hydroxy-3,4-dihydro-2H-benzo[e][1,2]oxaborinine-8-carboxylic acid]	0.1 to 1	0.1 to 1	1 to 10	< 0.1	0.1 to 1	C (C represents an MIC of <1 μg/mL)	C (C represents an MIC of <1 μg/mL)	C (C represents an MIC of <1 μg/mL)	C (C represents an MIC of <1 μg/mL)	B (B represents an MIC between 1 and 16 μg/mL inclusive)	B (B represents an MIC between 1 and 16 μg/mL inclusive)
N#Cc1ncn(CC(=O)N[C@H]2Cc3cccc(C(=O)O)c3OB2O)n1 [Example 25, (R)-3-(2-(3-cyano-1H-1,2,4-triazol-1-yl)acetamido)-2-hydroxy-3,4-dihydro-2H-benzo[e][1,2]oxaborinine-8-carboxylic acid]	< 0.1	< 0.1	0.1 to 1	< 0.1	0.1 to 1	C (C represents an MIC of <1 μg/mL)	C (C represents an MIC of <1 μg/mL)	B (B represents an MIC between 1 and 16 μg/mL inclusive)	B (B represents an MIC between 1 and 16 μg/mL inclusive)	A (A represents an MIC>16 μg/mL)	B (B represents an MIC between 1 and 16 μg/mL inclusive)
